Laboratory results: patent US8134015B2, “Compound inhibiting in vivo phosphorous transport and medicine containing the same” (Kyowa Hakko Kirin Co., Ltd., priority 2003, dated 2012)

Target: T1, rat NaPi-2b (Rattus norvegicus, UniProt Q9JJ09)
T1 construct: expressed in transfected cells; host or cells: Xenopus oocytes injected with cRNA
T1 sequence (Q9JJ09 1-695): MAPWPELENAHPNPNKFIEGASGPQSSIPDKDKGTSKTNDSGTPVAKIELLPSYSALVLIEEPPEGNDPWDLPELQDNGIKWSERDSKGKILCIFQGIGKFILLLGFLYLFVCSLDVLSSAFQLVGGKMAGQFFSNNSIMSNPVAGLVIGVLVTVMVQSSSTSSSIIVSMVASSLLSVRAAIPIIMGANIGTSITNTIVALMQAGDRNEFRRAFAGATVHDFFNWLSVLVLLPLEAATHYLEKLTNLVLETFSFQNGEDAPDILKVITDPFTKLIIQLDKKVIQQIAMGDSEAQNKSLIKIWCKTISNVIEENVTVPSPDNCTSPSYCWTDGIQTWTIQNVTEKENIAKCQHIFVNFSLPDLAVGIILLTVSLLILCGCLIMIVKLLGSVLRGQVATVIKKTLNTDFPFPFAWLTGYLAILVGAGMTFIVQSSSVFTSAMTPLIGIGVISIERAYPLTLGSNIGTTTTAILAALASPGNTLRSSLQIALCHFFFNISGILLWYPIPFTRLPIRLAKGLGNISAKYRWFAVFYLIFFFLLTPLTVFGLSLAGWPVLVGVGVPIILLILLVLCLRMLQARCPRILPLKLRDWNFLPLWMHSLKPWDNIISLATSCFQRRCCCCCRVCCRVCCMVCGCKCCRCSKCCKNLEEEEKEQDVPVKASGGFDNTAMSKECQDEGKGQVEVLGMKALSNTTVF
Assay: Sodium-dependent phosphate uptake of Xenopus oocytes which expressed NaPi-2b (32P)
Assay type: cell-based
Conditions: for inhibition at 300 µM: phosphate uptake, oocytes expressing rat NaPi-2b, determined from inhibition curve; for IC50: Xenopus oocytes expressing rat NaPi-2b, 32P radioactive phosphorus, read-out: IC50 (phosphate uptake inhibitory activity)
In short: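 Oocytes injected with rat NaPi-2b cRNA, cultured 2 d, then 32P uptake measured with compound. Values: % inhibition at 300 and 100 μM, both from one inhibition curve.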

SMILES	inhibition at 300 µM [%]	IC50 [µM]
COc1ccc(/C=N/NC(=O)c2scc(C)c2NC(=O)c2cccc(CN3CCC(O)CC3)c2)cc1 [Compound 543, 3-(4-Hydroxy-piperidin-1-ylmethyl)-N-[2-(4-methoxy-benzylidene-hydrazinocarbonyl)-4-methyl-thiophen-3-yl]-benzamide]	30.2	–
O=C(Nc1ccc(Br)cc1C(=O)N/N=C/c1ccc(Cl)c(C(F)(F)F)c1)c1ccc(CN2CCN(c3ccccn3)CC2)cc1 [Compound 776, N-[4-Bromo-2-(4-chloro-3-trifluoromethyl-benzylidene-hydrazinocarbonyl)-phenyl]-4-(4-pyridin-2-yl-piperazin-1-ylmethyl)-benzamide]	49.2	–
O=c1c2c3c(sc2nc(-c2cccc(CSc4nc[nH]n4)c2)n1/N=C/c1ccc(Cl)c(C(F)(F)F)c1)CCCC3 [Compound 650, 3-[(4-Chloro-3-trifluoromethyl-benzylidene)-amino]-2-[3-(1H-[1,2,4]triazol-3-ylsulfanylmethyl)-phenyl]-5,6,7,8-tetrahydro-3H-benzo[4,5]thieno[2,3-d]pyrimidin-4-one]	–	0.95
O=C(Nc1cc2ccccc2cc1C(=O)N/N=C/c1cccc(F)c1)c1cccc(CN2CCN(CCO)CC2)c1 [Compound 969, N-[3-(3-Fluoro-benzylidene-hydrazinocarbonyl)-naphthalen-2-yl]-3-[4-(2-hydroxy-ethyl)-piperazin-1-ylmethyl]-benzamide]	–	< 3
COc1cc(OC)cc(C(=O)Nc2ccccc2C(=O)N/N=C/c2ccc(OC)c(Br)c2)c1 [Compound 99, N-[2-(3-Bromo-4-methoxy-benzylidene-hydrazinocarbonyl)-phenyl]-3,5-dimethoxy-benzamide]	–	3.03
COc1ccc(/C=N/NC(=O)c2cc(OCCCCF)ccc2NC(=O)c2cccc(CSCCO)c2)cc1 [Compound 1055, N-[4-(4-Fluoro-butoxy)-2-(4-methoxy-benzylidene-hydrazinocarbonyl)-phenyl]-3-(2-hydroxy-ethylsulfanylmethyl)-benzamide]	–	1.96
O=C(Nc1ccc(Br)cc1C(=O)N/N=C/c1ccc(Cl)c(C(F)(F)F)c1)c1cccs1 [Compound 162, Thiophene-2-carboxylic acid [4-bromo-2-(4-chloro-3-trifluoromethyl-benzylidene-hydrazinocarbonyl)-phenyl]-amide]	–	3.11
COc1ccc(C(=O)Nc2ccccc2C(=O)N/N=C/c2ccccc2Cl)cc1OC [Compound 231, N-[2-(2-Chloro-benzylidene-hydrazinocarbonyl)-phenyl]-3,4-dimethoxy-benzamide]	32.8	–
Cc1cccc(/C=N/NC(=O)c2cc(Br)ccc2NC(=O)c2ccco2)c1 [Compound 153, Furan-2-carboxylic acid [4-bromo-2-(3-methyl-benzylidene-hydrazinocarbonyl)-phenyl]-amide]	–	3.5
O=C(Nc1ccc(Br)cc1C(=O)N/N=C/c1cccc(F)c1)c1ccc(CN2CCN(c3ccccn3)CC2)cc1 [Compound 775, N-[4-Bromo-2-(3-fluoro-benzylidene-hydrazinocarbonyl)-phenyl]-4-(4-pyridin-2-yl-piperazin-1-ylmethyl)-benzamide]	44.6	–
COc1cc(/C=N/NC(=O)c2ccccc2NC(=O)c2ccc(OC)c(OC)c2)cc(OC)c1 [Compound 53, N-[2-(3,5-Dimethoxy-benzylidene-hydrazinocarbonyl)-phenyl]-3,4-dimethoxy-benzamide]	–	4.05
COc1ccc(C(=O)Nc2ccc(I)cc2C(=O)N/N=C/c2ccc(Cl)c(C(F)(F)F)c2)cc1OC [Compound 209, N-[2-(4-Chloro-3-trifluoromethyl-benzylidene-hydrazinocarbonyl)-4-iodo-phenyl]-3,4-dimethoxy-benzamide]	–	< 1
Cc1ccc(/C=N/NC(=O)c2cc(Br)ccc2NC(=O)c2ccc(CN3CCC(N4CCCCC4)CC3)cc2)cc1 [Compound 309, 4-[1,4′]Bipiperidinyl-1′-ylmethyl-N-[4-bromo-2-(4-methyl-benzylidene-hydrazinocarbonyl)-phenyl]-benzamide]	–	15.1
COc1ccc(C(=O)Nc2ccccc2C(=O)N/N=C/c2ccc(Cl)c(C(F)(F)F)c2)cc1 [Compound 90, N-[2-(4-Chloro-3-trifluoromethyl-benzylidene-hydrazinocarbonyl)-phenyl]-4-methoxy-benzamide]	–	3.42

Further lines, results first:

inhibition at 300 µM [%]	IC50 [µM]	SMILES
–	7.78	CCN(CCO)Cc1ccc(C(=O)Nc2ccc(Cl)cc2C(=O)N/N=C/c2cccc(C)c2)cc1 [Compound 434, N-[4-Chloro-2-(3-methyl-benzylidene-hydrazinocarbonyl)-phenyl]-4-{[ethyl-(2-hydroxy-ethyl)-amino]-methyl}-benzamide]
58.4	–	CCN(CC)CCN(C)Cc1cccc(C(=O)Nc2c(C)csc2C(=O)N/N=C/c2ccc(F)cc2)c1 [Compound 528, 3-{[(2-Diethylamino-ethyl)-methyl-amino]-methyl}-N-[2-(4-fluoro-benzylidene-hydrazinocarbonyl)-4-methyl-thiophen-3-yl]-benzamide]
–	15.1	CCN(CC)CCN(C)Cc1cccc(C(=O)Nc2sccc2C(=O)N/N=C/c2ccc(C)c(C)c2)c1 [Compound 664, 3-{[(2-Diethylamino-ethyl)-methyl-amino]-methyl}-N-[3-(3,4-dimethyl-benzylidene-hydrazinocarbonyl)-thiophen-2-yl]-benzamide]
–	10.1	Cc1cccc(/C=N/NC(=O)c2cc(Cl)ccc2NC(=O)c2cccnc2)c1 [Compound 186, N-[4-Chloro-2-(3-methyl-benzylidene-hydrazinocarbonyl)-phenyl]-nicotinamide]
–	< 3	Cc1ccc(/C=N/NC(=O)c2cc(Cl)ccc2NC(=O)c2cccc(CSc3nnnn3CCN(C)C)c2)cc1C [Compound 466, N-[4-Chloro-2-(3,4-dimethyl-benzylidene-hydrazinocarbonyl)-phenyl]-3-[1-(2-dimethylamino-ethyl)-1H-tetrazol-5-ylsulfanylmethyl]-benzamide]
81	–	CCN(CC)CCN(C)Cc1cccc(C(=O)Nc2c(C)csc2C(=O)N/N=C/c2ccc(C)c(C)c2)c1 [Compound 711, 3-{[(2-Diethylamino-ethyl)-methyl-amino]-methyl}-N-[2-(3,4-dimethyl-benzylidene-hydrazinocarbonyl)-4-methyl-thiophen-3-yl]-benzamide]
82.3	–	CCN(CC)CCN(C)Cc1cccc(C(=O)Nc2sccc2C(=O)N/N=C/c2ccc(C)cc2)c1 [Compound 665, 3-{[(2-Diethylamino-ethyl)-methyl-amino]-methyl}-N-[3-(4-methyl-benzylidene-hydrazinocarbonyl)-thiophen-2-yl]-benzamide]
–	0.43	Cc1ccc(/C=N/NC(=O)c2cc(Br)ccc2NC(=O)c2cccc(CSc3nc[nH]n3)c2)cc1C [Compound 267, N-[4-Bromo-2-(3,4-dimethyl-benzylidene-hydrazinocarbonyl)-phenyl]-3-(1H-[1,2,4]triazol-3-ylsulfanylmethyl)-benzamide]
–	40.2	CCN(CC)CCN(C)Cc1cccc(C(=O)Nc2ccc(N3CCN(CCO)CC3)cc2C(=O)N/N=C/c2ccc(Cl)c(C(F)(F)F)c2)c1 [Compound 924, N-{2-(4-Chloro-3-trifluoromethyl-benzylidene-hydrazinocarbonyl)-4-[4-(2-hydroxy-ethyl)-piperazin-1-yl]-phenyl}-3-{[(2-diethylamino-ethyl)-methyl-amino]-methyl}-benzamide]
–	5.04	O=C(Nc1ccc(Br)cc1C(=O)N/N=C/c1ccc(F)cc1)c1cccc(CSc2nc[nH]n2)c1 [Compound 270, N-[4-Bromo-2-(4-fluoro-benzylidene-hydrazinocarbonyl)-phenyl]-3-(1H-[1,2,4]triazol-3-ylsulfanylmethyl)-benzamide]
–	0.35	CCN(CC)CCN(C)Cc1cccc(C(=O)Nc2ccc(Cl)cc2C(=O)N/N=C/c2ccc(F)cc2)c1 [Compound 380, N-[4-Chloro-2-(4-fluoro-benzylidene-hydrazinocarbonyl)-phenyl]-3-{[(2-diethylamino-ethyl)-methyl-amino]-methyl}-benzamide]
82	–	CCN(CC)CCNCc1cccc(C(=O)Nc2c(C)csc2C(=O)N/N=C/c2ccc(C)cc2)c1 [Compound 537, 3-[(2-Diethylamino-ethylamino)-methyl]-N-[4-methyl-2-(4-methyl-benzylidene-hydrazinocarbonyl)-thiophen-3-yl]-benzamide]
–	0.45	O=C(Nc1ccc(Cl)cc1C(=O)N/N=C/c1ccc(F)cc1)c1cccc(CSc2nc[nH]n2)c1 [Compound 390, N-[4-Chloro-2-(4-fluoro-benzylidene-hydrazinocarbonyl)-phenyl]-3-(1H-[1,2,4]triazol-3-ylsulfanylmethyl)-benzamide]
–	2.54	Cc1ccc(/C=N/NC(=O)c2cc(Cl)ccc2NC(=O)c2cccc(CN3CCC(N4CCCCC4)CC3)c2)cc1 [Compound 371, 3-[1,4′]Bipiperidinyl-1′-ylmethyl-N-[4-chloro-2-(4-methyl-benzylidene-hydrazinocarbonyl)-phenyl]-benzamide]
